Values after ≈ are worked out from the molar mass of the structure shown.
Key:
[1] = system: Mycobacterium kansasii; test: Antimycobacterial activity against Mycobacterium kansasii 235/80 after 14 days by microdilution method; assay type: functional; conditions: 235/80, 336 h
[2] = system: Mycobacterium avium; test: Antimycobacterial activity against INH,RIF,OFX,EMB-resistant Mycobacterium avium 330/88 after 21 days by microdilution method; assay type: functional; conditions: 330/88, 504 h
[3] = system: Mycobacterium kansasii; test: Antimycobacterial activity against Mycobacterium kansasii 6509/96 after 7 days by microdilution method; assay type: functional; conditions: 6509/96, 168 h
[4] = system: Mycobacterium tuberculosis; test: Antimycobacterial activity against Mycobacterium tuberculosis H37Rv 331/88 after 21 days by microdilution method; assay type: functional; conditions: H37Rv 331/88, 504 h
[5] = system: Mycobacterium avium; test: Antimycobacterial activity against INH,RIF,OFX,EMB-resistant Mycobacterium avium 330/88 after 14 days by microdilution method; assay type: functional; conditions: 330/88, 336 h
[6] = system: Mycobacterium kansasii; test: Antimycobacterial activity against Mycobacterium kansasii 6509/96 after 14 days by microdilution method; assay type: functional; conditions: 6509/96, 336 h
[7] = system: Mycobacterium kansasii; test: Antimycobacterial activity against Mycobacterium kansasii 235/80 after 7 days by microdilution method; assay type: functional; conditions: 235/80, 168 h
[8] = system: Mycobacterium tuberculosis; test: Antimycobacterial activity against Mycobacterium tuberculosis H37Rv 331/88 after 14 days by microdilution method; assay type: functional; conditions: H37Rv 331/88, 336 h
[9] = system: Mycobacterium kansasii; test: Antimycobacterial activity against Mycobacterium kansasii 235/80 after 21 days by microdilution method; assay type: functional; conditions: 235/80, 504 h
[10] = system: Mycobacterium kansasii; test: Antimycobacterial activity against Mycobacterium kansasii 6509/96 after 21 days by microdilution method; assay type: functional; conditions: 6509/96, 504 h
[11] = Selectivity index, ratio of IC50 for human HepG2 cells to MIC for atypical mycobacteria
[12] = Selectivity index, ratio of IC50 for human HepG2 cells to MIC for Mycobacterium tuberculosis; assay type: toxicity, cell-based; conditions: read-out: Selectivity Index
[13] = system: HepG2; test: Cytotoxicity against human HepG2 cells after 72 hrs by MTT assay; assay type: cell-based; conditions: HepG2, 72 h
[14] = system: HepG2; test: Cytostatic activity against human HepG2 cells after 72 hrs by MTT assay; assay type: functional, cell-based; conditions: HepG2, 72 h
[15] = system: Trichosporon asahii; test: Antifungal activity against Trichosporon asahii 1188 after 24 hrs by broth microdilution method; assay type: functional; conditions: Trichosporon asahii, 1188, 24 h
[16] = system: Trichosporon asahii; test: Antifungal activity against Trichosporon asahii 1188 after 48 hrs by broth microdilution method; assay type: functional; conditions: Trichosporon asahii, 1188, 48 h

Row | Compound | MIC [1] | MIC [2] | MIC [3] | MIC [4] | MIC [5] | MIC [6] | MIC [7] | MIC [8] | MIC [9] | MIC [10] | Selectivity Index [11] | selectivity ratio [12] | IC50 [13] | IC50 [14] | MIC [15] | MIC [16]
1 | O=C(Nc1ccc(C(F)(F)F)cc1)c1cc(Cl)ccc1O | 2 µM (≈ 0.631 µg/mL) | 8 µM (≈ 2.53 µg/mL) | 2 µM (≈ 0.631 µg/mL) | 2 µM (≈ 0.631 µg/mL) | 8 µM (≈ 2.53 µg/mL) | 2 µM (≈ 0.631 µg/mL) | 1 µM (≈ 0.316 µg/mL) | 2 µM (≈ 0.631 µg/mL) | 2 µM (≈ 0.631 µg/mL) | 2 µM (≈ 0.631 µg/mL) | – | – | – | – | – | –
2 | O=C(Nc1ccc(Cl)c(Cl)c1)c1cc(Cl)ccc1O | 8 µM (≈ 2.53 µg/mL) | 32 µM (≈ 10.1 µg/mL) | 8 µM (≈ 2.53 µg/mL) | 8 µM (≈ 2.53 µg/mL) | 32 µM (≈ 10.1 µg/mL) | 8 µM (≈ 2.53 µg/mL) | 4 µM (≈ 1.27 µg/mL) | 4 µM (≈ 1.27 µg/mL) | 8 µM (≈ 2.53 µg/mL) | 8 µM (≈ 2.53 µg/mL) | – | – | – | – | – | –
3 | Nc1ccc(C(=O)O)c(O)c1 [AMINOSALICYLIC ACID] | 1000 µM (≈ 153 µg/mL) | 125 µM (≈ 19.1 µg/mL) | 32 µM (≈ 4.9 µg/mL) | 62.5 µM (≈ 9.57 µg/mL) | 32 µM (≈ 4.9 µg/mL) | 125 µM (≈ 19.1 µg/mL) | 125 µM (≈ 19.1 µg/mL) | 62.5 µM (≈ 9.57 µg/mL) | > 1000 µM | 500 µM (≈ 76.6 µg/mL) | <2.2 | 35.8 | – | – | – | –
4 | O=C(Oc1ccc(Br)cc1C(=O)Nc1ccc(C(F)(F)F)cc1)c1ccccc1 | 2 µM (≈ 0.928 µg/mL) | 4 µM (≈ 1.86 µg/mL) | 2 µM (≈ 0.928 µg/mL) | 1 µM (≈ 0.464 µg/mL) | 4 µM (≈ 1.86 µg/mL) | 2 µM (≈ 0.928 µg/mL) | 2 µM (≈ 0.928 µg/mL) | 1 µM (≈ 0.464 µg/mL) | 2 µM (≈ 0.928 µg/mL) | 2 µM (≈ 0.928 µg/mL) | – | – | – | – | – | –
5 | O=C(Oc1ccc(Cl)cc1C(=O)Nc1ccc(C(F)(F)F)cc1)c1ccc(C(F)(F)F)cc1 | 2 µM (≈ 0.976 µg/mL) | 4 µM (≈ 1.95 µg/mL) | 1 µM (≈ 0.488 µg/mL) | 1 µM (≈ 0.488 µg/mL) | 1 µM (≈ 0.488 µg/mL) | 2 µM (≈ 0.976 µg/mL) | 1 µM (≈ 0.488 µg/mL) | 1 µM (≈ 0.488 µg/mL) | 4 µM (≈ 1.95 µg/mL) | 4 µM (≈ 1.95 µg/mL) | – | – | – | – | – | –
6 | O=C(Oc1ccc(Cl)cc1C(=O)Nc1ccc(Cl)c(Cl)c1)c1ccccc1 | 4 µM (≈ 1.68 µg/mL) | 8 µM (≈ 3.37 µg/mL) | 1 µM (≈ 0.421 µg/mL) | 1 µM (≈ 0.421 µg/mL) | 8 µM (≈ 3.37 µg/mL) | 2 µM (≈ 0.841 µg/mL) | 2 µM (≈ 0.841 µg/mL) | 1 µM (≈ 0.421 µg/mL) | 4 µM (≈ 1.68 µg/mL) | 2 µM (≈ 0.841 µg/mL) | – | – | – | – | – | –
7 | O=C(Oc1ccc(Cl)cc1C(=O)Nc1ccc(C(F)(F)F)cc1)c1ccc([N+](=O)[O-])cc1 | 2 µM (≈ 0.93 µg/mL) | 4 µM (≈ 1.86 µg/mL) | 1 µM (≈ 0.465 µg/mL) | 1 µM (≈ 0.465 µg/mL) | 4 µM (≈ 1.86 µg/mL) | 2 µM (≈ 0.93 µg/mL) | 1 µM (≈ 0.465 µg/mL) | 0.5 µM (≈ 0.232 µg/mL) | 4 µM (≈ 1.86 µg/mL) | 4 µM (≈ 1.86 µg/mL) | >12.5 | > 50 | > 50 µM | 1.15 µM | – | –
8 | O=C(Nc1ccc(C(F)(F)F)cc1)c1cc(Br)ccc1O | 2 µM (≈ 0.72 µg/mL) | 2 µM (≈ 0.72 µg/mL) | 2 µM (≈ 0.72 µg/mL) | 1 µM (≈ 0.36 µg/mL) | 2 µM (≈ 0.72 µg/mL) | 4 µM (≈ 1.44 µg/mL) | 2 µM (≈ 0.72 µg/mL) | 1 µM (≈ 0.36 µg/mL) | 4 µM (≈ 1.44 µg/mL) | 4 µM (≈ 1.44 µg/mL) | – | – | – | – | – | –
9 | O=C(Oc1ccc(Cl)cc1C(=O)Nc1ccc(C(F)(F)F)cc1)c1ccc(Br)cc1 | 1 µM (≈ 0.499 µg/mL) | 4 µM (≈ 1.99 µg/mL) | 1 µM (≈ 0.499 µg/mL) | 1 µM (≈ 0.499 µg/mL) | 4 µM (≈ 1.99 µg/mL) | 2 µM (≈ 0.997 µg/mL) | 0.5 µM (≈ 0.249 µg/mL) | 1 µM (≈ 0.499 µg/mL) | 1 µM (≈ 0.499 µg/mL) | 2 µM (≈ 0.997 µg/mL) | >12.5 | > 50 | > 50 µM | 14.5 µM | – | –
10 | O=C(Oc1ccc(Br)cc1C(=O)Nc1ccc(C(F)(F)F)cc1)c1ccc([N+](=O)[O-])cc1 | 1 µM (≈ 0.509 µg/mL) | 2 µM (≈ 1.02 µg/mL) | 0.5 µM (≈ 0.255 µg/mL) | 0.5 µM (≈ 0.255 µg/mL) | 1 µM (≈ 0.509 µg/mL) | 0.5 µM (≈ 0.255 µg/mL) | 0.5 µM (≈ 0.255 µg/mL) | 0.5 µM (≈ 0.255 µg/mL) | 1 µM (≈ 0.509 µg/mL) | 1 µM (≈ 0.509 µg/mL) | >25 | > 100 | > 50 µM | 1.25 µM | – | –
11 | O=C(Oc1ccc(Br)cc1C(=O)Nc1ccc(C(F)(F)F)cc1)c1ccc(C(F)(F)F)cc1 | 2 µM (≈ 1.06 µg/mL) | 4 µM (≈ 2.13 µg/mL) | 1 µM (≈ 0.532 µg/mL) | 1 µM (≈ 0.532 µg/mL) | 2 µM (≈ 1.06 µg/mL) | 2 µM (≈ 1.06 µg/mL) | 1 µM (≈ 0.532 µg/mL) | 1 µM (≈ 0.532 µg/mL) | 4 µM (≈ 2.13 µg/mL) | 4 µM (≈ 2.13 µg/mL) | – | – | – | – | – | –
12 | O=C(Oc1ccc(Cl)cc1C(=O)Nc1ccc(C(F)(F)F)cc1)c1ccccc1 | 1 µM (≈ 0.42 µg/mL) | 4 µM (≈ 1.68 µg/mL) | 2 µM (≈ 0.84 µg/mL) | 1 µM (≈ 0.42 µg/mL) | 4 µM (≈ 1.68 µg/mL) | 2 µM (≈ 0.84 µg/mL) | 1 µM (≈ 0.42 µg/mL) | 0.5 µM (≈ 0.21 µg/mL) | 1 µM (≈ 0.42 µg/mL) | 2 µM (≈ 0.84 µg/mL) | – | – | – | – | – | –
13 | O=C(Oc1ccc(Cl)cc1C(=O)Nc1ccc(Cl)c(Cl)c1)c1ccc(C(F)(F)F)cc1 | 2 µM (≈ 0.977 µg/mL) | 4 µM (≈ 1.95 µg/mL) | 1 µM (≈ 0.489 µg/mL) | 1 µM (≈ 0.489 µg/mL) | 4 µM (≈ 1.95 µg/mL) | 2 µM (≈ 0.977 µg/mL) | 1 µM (≈ 0.489 µg/mL) | 1 µM (≈ 0.489 µg/mL) | 4 µM (≈ 1.95 µg/mL) | 4 µM (≈ 1.95 µg/mL) | – | – | – | – | – | –
14 | Cc1ccc(C(=O)Oc2ccc(Cl)cc2C(=O)Nc2ccc(Cl)c(Cl)c2)cc1 | 2 µM (≈ 0.869 µg/mL) | 8 µM (≈ 3.48 µg/mL) | 2 µM (≈ 0.869 µg/mL) | 1 µM (≈ 0.435 µg/mL) | 8 µM (≈ 3.48 µg/mL) | 4 µM (≈ 1.74 µg/mL) | 1 µM (≈ 0.435 µg/mL) | 1 µM (≈ 0.435 µg/mL) | 2 µM (≈ 0.869 µg/mL) | 4 µM (≈ 1.74 µg/mL) | >6.25 | > 50 | > 50 µM | 2.55 µM | – | –
15 | O=C(Oc1ccc(Br)cc1C(=O)Nc1ccc(C(F)(F)F)cc1)c1ccc(Br)cc1 | 2 µM (≈ 1.09 µg/mL) | 8 µM (≈ 4.35 µg/mL) | 4 µM (≈ 2.17 µg/mL) | 1 µM (≈ 0.543 µg/mL) | 8 µM (≈ 4.35 µg/mL) | 4 µM (≈ 2.17 µg/mL) | 1 µM (≈ 0.543 µg/mL) | 1 µM (≈ 0.543 µg/mL) | 4 µM (≈ 2.17 µg/mL) | 4 µM (≈ 2.17 µg/mL) | >6.25 | > 50 | > 50 µM | 4.2 µM | – | –
16 | OC(Cn1cncn1)(Cn1cncn1)c1ccc(F)cc1F [FLUCONAZOLE] | – | – | – | – | – | – | – | – | – | – | – | – | – | – | 4 µM (≈ 1.23 µg/mL) | 9 µM (≈ 2.76 µg/mL)
